This is an account of results in patent US20080293777A1, “Weight Loss Treatment” (priority 2007, published 2008).

The nature of data set [1]: Weight change in leptin-deficient (ob/ob) mice. The following applies: for weight change: PO BID for 7 days, FIG. 3. The class given is in vivo. The procedure: To investigate Compound 1's effect on various metabolic disorders including diabetes and obesity, in vivo studies were conducted in the ob/ob obese mouse model and in the db/db diabetic model. The ob/ob mouse is deficient in the hormone leptin, a 16 kDa protein that is secreted by fat cells and plays a key role in regulating energy intake and energy expenditure, including the regulation of appetite and metabolism. […] Compound 1 was tested in these metabolic disease models along with two anti-diabetic drugs that also affect body weight, metformin hydrochloride and rosiglitazone maleate.
Male BKS.Cg-m+/+Leprdb/J (˜5 weeks of age) and B6.V-Lepob/J mice (˜8 weeks of age) were used for in vivo efficacy studies. Mice were housed 4 per cage and acclimated for 10 days prior to the start of the study. […] Mice were weighed each morning just prior to dosing. Mice were fasted overnight between study day 1 and 2 and blood glucose was measured in the morning of day 2 using a glucometer and blood from a tail nick. Food was returned to the mice ad libitum and the mice were again fasted overnight between study day 3 and 4, 5 and 6, and 7 and 8.

Data set [2] addresses T1, PTP-1B (wild type, residues 1-298) (Homo sapiens, UniProt P18031).
T1 construct: PTP-1B (wild type, residues 1-298) was exchanged into DFTN buffer
T1 sequence (P18031 1-298): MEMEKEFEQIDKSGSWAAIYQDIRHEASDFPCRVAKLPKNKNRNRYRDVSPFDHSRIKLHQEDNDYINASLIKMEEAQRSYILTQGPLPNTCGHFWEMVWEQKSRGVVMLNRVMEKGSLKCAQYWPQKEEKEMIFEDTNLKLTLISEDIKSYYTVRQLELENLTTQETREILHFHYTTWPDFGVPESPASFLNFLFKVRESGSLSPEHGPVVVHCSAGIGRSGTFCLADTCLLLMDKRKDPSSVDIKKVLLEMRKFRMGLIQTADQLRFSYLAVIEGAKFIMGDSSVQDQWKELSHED
Nature of the data set: PTP-1B activity assay with pNPP, with or without DTT added afterwards. The following applies: FIG. 1. It counts as biochemical. The procedure:
(§1) PTP-1B (wild type, residues 1-298) was exchanged into DFTN buffer (DTT-free, 50 mM Tris, 100 mM NaCl, 1 mM EDTA, pH 7.4) using a NAP-5 column, and the concentration of protein was quantified using the absorbance at 280 nm. Purity of the PTP-1B was evidenced by a single mass peak (mass=34,672 amu in a mass spectrometer).
(§2) To 99 mL solution of 1.0 μM PTP-1B in buffer was added 1 mL of Compound 1 in DMSO […]. After 15 minutes, each Compound 1-treated PTP-1B sample was evaluated by mass spectrometry (QSTAR protein mass spectrometer with Baynesian protein mass deconvolution). Concurrently, two 10 μL aliquots were removed. One aliquot was diluted with 10 μL DFTN buffer while the other aliquot was diluted with 10 μL TN buffer (1 mM DTT, 50 mM Tris, 100 mM NaCl, 1 mM EDTA, pH 7.4). After 15 minutes, the samples were diluted with 90 μL pNPP solution (5.6 mM pNPP in DFTN) and the A405 of the solution was monitored for 5 minutes.

For data set [3] the following is noted: cited from earlier work.
The target in data set [4] is T1, PTP-1B (wild type, residues 1-298). Nature of the data set: Mass spectrometry of PTP-1B treated with Compound 1. The class given is binding. The following applies: 1 equivalent of Compound 1 for 15 minutes, FIG. 2. How it is done: as §1, §2
Data set [5] can be described thus: Weight change in db/db mice (mutation mapped to leptin receptor). It counts as in vivo. As to conditions: FIG. 4. How it is done: To investigate Compound 1's effect on various metabolic disorders including diabetes and obesity, in vivo studies were conducted in the ob/ob obese mouse model and in the db/db diabetic model. The ob/ob mouse is deficient in the hormone leptin, a 16 kDa protein that is secreted by fat cells and plays a key role in regulating energy intake and energy expenditure, including the regulation of appetite and metabolism. Leptin-deficient mice are severely obese and develop diabetes but revert to normal weight upon leptin administration. In the second model, the mice have a genetic mutation mapped to the leptin receptor (db/db) and at the time of the experiment were moderately overweight. Compound 1 was tested in these metabolic disease models along with two anti-diabetic drugs that also affect body weight, metformin hydrochloride and rosiglitazone maleate.
Male BKS.Cg-m+/+Leprdb/J (˜5 weeks of age) and B6.V-Lepob/J mice (˜8 weeks of age) were used for in vivo efficacy studies. Mice were housed 4 per cage and acclimated for 10 days prior to the start of the study. […] Mice were fasted overnight between study day 1 and 2 and blood glucose was measured in the morning of day 2 using a glucometer and blood from a tail nick. […]

Where a name gives a salt, the structure may show the parent alone.

Consider `O=c1c2ccccc2[se]n1-c1ccccc1` [Compound 1, 2-phenyl-1,2-benzisoselenazol-3(2H)-one], for which the “difference in weight loss between doses” value in data set [1] (20 mg/kg vs 100 mg/kg Compound 1 dosed orally BID) was “No significant difference in weight loss”. In addition, the weight change entry in data set [1] was “promoted weight loss”. Also, the “relative activity of PTP-1B” value in data set [2] (0-2 equivalents of Compound 1, 15 minutes) is listed as “inhibits the activity”. Also, the “reversibility of covalent inhibition of PTP-1B” value in data set [2] (upon addition of a reducing agent such as DTT) is reported as “reversible”. Further, in data set [3] (data from clinical trials), the cell permeability entry was “cell-permeable”. Also, in data set [3] (human, in vivo), the “bioavailability of the selenium moiety” value was “not bioavailable”. Further, in data set [3] (humans, clinical trials), the oral bioavailability entry was “orally bioavailable” and the tolerability entry is recorded as “well tolerated”. Besides, the toxicity entry in data set [3] (up to 500 mg/day oral dose in humans) was “no toxicity was observed”. For the same compound, in data set [4], the “covalent modification of PTP-1B (mass spectrum)” value is “covalently modifies”.
Consider `CN(C)C(=N)N=C(N)N` [metformin, metformin hydrochloride, reference compound], for which, in data set [1], the weight change result is listed as “promoted weight loss”.
In the case of `CN(CCOc1ccc(CC2SC(=O)NC2=O)cc1)c1ccccn1.O=C(O)/C=C\C(=O)O` (stereo not shown) [rosiglitazone, rosiglitazone maleate, reference compound], the weight change result in data set [1] is “gained weight”. Further, the “statistical significance of weight gains” value in data set [5] is recorded as “except for the rosiglitazone-treated mice, the weight gains were not statistically significant”.
